Read-outs that look alike come from different tables or passages of the source.
What was measured:
JAK1 = JAK1 (Homo sapiens (Human), UniProt P23458); assay: LanthaScreen JAK biochemical assay (JAK1)
JAK2 = JAK2 (Homo sapiens (Human), UniProt O60674); assay: LanthaScreen JAK biochemical assay (JAK2); settings: for Ki: read-out: JAK 2 (pKi) (converted)
Tyk2 = Tyk2 (Homo sapiens (Human), UniProt P29597); assay: LanthaScreen JAK biochemical assay (Tyk2); settings: for Ki: read-out: Tyk 2 (pKi) (converted)
Tyk2, sequence (P29597 whole entry): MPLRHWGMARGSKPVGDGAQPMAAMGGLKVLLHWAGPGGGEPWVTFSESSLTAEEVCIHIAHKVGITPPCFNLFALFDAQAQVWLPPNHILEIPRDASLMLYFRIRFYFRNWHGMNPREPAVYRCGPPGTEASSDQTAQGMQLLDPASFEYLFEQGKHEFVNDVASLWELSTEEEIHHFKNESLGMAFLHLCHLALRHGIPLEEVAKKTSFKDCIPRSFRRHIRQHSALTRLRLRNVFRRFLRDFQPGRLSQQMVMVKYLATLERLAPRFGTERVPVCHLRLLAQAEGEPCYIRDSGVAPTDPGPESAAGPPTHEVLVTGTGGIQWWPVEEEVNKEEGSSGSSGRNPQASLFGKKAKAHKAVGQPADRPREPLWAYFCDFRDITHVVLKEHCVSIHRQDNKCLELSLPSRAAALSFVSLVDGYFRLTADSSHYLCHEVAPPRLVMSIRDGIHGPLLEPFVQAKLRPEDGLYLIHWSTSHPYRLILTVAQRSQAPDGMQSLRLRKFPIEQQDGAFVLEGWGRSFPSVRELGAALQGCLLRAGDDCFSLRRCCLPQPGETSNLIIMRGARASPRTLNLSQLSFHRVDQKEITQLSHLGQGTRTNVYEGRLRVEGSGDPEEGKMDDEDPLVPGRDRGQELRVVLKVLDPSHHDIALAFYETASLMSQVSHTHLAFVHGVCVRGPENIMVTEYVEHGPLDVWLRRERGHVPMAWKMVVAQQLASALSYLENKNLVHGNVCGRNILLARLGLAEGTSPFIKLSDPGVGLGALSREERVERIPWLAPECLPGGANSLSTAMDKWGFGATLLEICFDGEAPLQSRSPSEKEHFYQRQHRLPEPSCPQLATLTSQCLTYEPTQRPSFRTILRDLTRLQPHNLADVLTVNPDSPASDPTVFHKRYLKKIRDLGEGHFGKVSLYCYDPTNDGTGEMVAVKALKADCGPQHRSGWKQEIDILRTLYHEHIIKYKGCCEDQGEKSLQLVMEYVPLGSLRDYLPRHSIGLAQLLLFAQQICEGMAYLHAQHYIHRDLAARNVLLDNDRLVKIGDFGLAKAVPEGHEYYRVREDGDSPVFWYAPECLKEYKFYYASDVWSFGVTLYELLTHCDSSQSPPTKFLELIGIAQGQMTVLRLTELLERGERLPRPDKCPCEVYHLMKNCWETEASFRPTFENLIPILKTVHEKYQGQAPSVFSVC

[1] = system: IL-4 induced STAT6 phosphorylation in THP-1 human monocytic cells; assay: Cellular JAK potency assay, THP-1
[2] = system: IL-13 induced STAT6 phosphorylation in BEAS-2B human lung epithelial cells; assay: AlphaScreen cellular JAK potency assay, BEAS-2B
[3] = IL-4 induced STAT6 phosphorylation, THP-1 cells
[4] = read-out: JAK 1 (pKi) (converted)
[5] = Homo sapiens, THP-1, read-out: THP-1 IL4 pIC50 (converted)
[6] = Homo sapiens, BEAS-2B, read-out: BEAS2B pIC50 (converted)
[7] = IL-13 induced STAT6 phosphorylation, BEAS-2B cells
[8] = THP-1 cells, IL-4 induced STAT6 phosphorylation

JAK1, sequence (P23458 whole entry): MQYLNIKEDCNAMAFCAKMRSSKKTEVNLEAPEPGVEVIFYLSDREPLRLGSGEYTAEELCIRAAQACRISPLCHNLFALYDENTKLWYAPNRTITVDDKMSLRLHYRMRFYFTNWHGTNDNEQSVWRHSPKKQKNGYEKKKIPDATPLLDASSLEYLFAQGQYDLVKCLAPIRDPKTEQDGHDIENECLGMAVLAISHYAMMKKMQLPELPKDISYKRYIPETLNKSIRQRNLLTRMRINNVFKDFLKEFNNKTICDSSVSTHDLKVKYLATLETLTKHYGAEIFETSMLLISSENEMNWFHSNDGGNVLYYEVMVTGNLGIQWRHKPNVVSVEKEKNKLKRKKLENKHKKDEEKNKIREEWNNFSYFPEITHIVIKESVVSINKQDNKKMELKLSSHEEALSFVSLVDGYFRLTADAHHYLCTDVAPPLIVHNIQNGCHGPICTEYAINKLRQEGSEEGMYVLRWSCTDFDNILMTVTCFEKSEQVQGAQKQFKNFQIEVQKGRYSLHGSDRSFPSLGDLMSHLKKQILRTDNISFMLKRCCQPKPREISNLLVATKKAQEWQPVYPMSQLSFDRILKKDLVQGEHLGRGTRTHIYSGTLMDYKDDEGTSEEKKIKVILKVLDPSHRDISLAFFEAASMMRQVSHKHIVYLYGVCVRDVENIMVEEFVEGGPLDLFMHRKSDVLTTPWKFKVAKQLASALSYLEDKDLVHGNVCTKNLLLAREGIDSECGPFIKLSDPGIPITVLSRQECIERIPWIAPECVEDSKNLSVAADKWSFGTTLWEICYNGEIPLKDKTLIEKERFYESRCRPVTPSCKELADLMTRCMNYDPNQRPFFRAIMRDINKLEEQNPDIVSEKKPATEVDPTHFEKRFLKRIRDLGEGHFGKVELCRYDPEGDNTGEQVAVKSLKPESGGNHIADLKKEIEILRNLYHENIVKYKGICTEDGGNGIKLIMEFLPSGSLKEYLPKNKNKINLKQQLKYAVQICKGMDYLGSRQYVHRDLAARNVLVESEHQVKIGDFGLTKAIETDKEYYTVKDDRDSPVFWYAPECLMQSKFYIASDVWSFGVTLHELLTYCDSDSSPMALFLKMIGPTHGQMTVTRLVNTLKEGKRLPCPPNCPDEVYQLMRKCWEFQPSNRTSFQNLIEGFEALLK
JAK2, sequence (O60674 whole entry): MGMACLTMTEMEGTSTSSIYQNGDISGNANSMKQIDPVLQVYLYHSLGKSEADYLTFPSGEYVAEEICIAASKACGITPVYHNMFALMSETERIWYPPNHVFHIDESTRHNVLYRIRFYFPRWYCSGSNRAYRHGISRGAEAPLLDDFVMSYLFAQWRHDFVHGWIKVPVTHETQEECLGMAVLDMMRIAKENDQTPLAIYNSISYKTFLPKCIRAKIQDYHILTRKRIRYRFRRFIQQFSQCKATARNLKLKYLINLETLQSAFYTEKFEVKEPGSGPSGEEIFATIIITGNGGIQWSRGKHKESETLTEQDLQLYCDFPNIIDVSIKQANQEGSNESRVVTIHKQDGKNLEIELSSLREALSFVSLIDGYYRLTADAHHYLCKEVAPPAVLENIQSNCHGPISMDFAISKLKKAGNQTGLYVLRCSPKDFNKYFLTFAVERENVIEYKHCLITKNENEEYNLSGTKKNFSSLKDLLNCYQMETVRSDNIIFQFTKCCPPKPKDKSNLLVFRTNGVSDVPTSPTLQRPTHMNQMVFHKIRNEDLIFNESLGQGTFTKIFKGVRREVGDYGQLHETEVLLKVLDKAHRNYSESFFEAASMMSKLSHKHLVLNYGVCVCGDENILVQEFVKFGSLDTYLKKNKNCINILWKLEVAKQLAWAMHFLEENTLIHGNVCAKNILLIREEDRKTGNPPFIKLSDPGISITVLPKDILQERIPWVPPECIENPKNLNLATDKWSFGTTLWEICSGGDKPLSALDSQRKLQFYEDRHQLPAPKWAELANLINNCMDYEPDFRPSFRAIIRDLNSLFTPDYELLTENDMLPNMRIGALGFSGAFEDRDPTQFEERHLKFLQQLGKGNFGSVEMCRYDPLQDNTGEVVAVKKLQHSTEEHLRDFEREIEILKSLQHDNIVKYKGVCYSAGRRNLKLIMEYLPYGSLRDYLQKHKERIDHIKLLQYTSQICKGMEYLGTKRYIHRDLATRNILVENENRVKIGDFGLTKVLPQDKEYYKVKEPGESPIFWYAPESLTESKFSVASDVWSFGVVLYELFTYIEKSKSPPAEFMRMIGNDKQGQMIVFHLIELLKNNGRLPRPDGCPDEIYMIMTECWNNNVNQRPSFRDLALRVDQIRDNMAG

Structure (SMILES) | JAK 1 (pKi) (JAK1) | JAK 2 (pKi) (JAK2) | Tyk 2 (pKi) (Tyk2) | Ki (Tyk2) | IC50 [1, 5] | also measured
COCCCN1[C@@H]2CC[C@H]1C[C@H](Nc1nc(Nc3cc(C)[nH]n3)cc3ncccc13)C2 [Example 1-15] | C (C represents a pKi value between 7 and 9 (Ki between 100 nM and 1 nM)) | C (C represents a pKi value between 7 and 9 (Ki between 100 nM and 1 nM)) | C (C represents a pKi value between 7 and 9 (Ki between 100 nM and 1 nM)) | – | – | THP-1 IL4 pIC50 [1, 3]: C (C represents a pEC50 value<6.7 (EC50>200 nM))
Cc1cc(Nc2cc3ncccc3c(N[C@@H]3C[C@H]4CC[C@@H](C3)N4CC3(C#N)CC3)n2)n[nH]1 [Example 1-24] | – | – | – | 0.1 to 1 nM | 31.6 to 200 nM | Ki (JAK1; [4]): 0.1 to 1 nM; IC50 [2, 6]: < 31.6 nM
Cc1cc(Nc2cc3ncccc3c(N[C@@H]3C[C@H]4CC[C@@H](C3)N4C3CCCOC3=O)n2)n[nH]1 (stereo partly shown) [Example 1-28] | – | – | – | 1 to 100 nM | > 200 nM | Ki (JAK2): 1 to 100 nM
Cc1cc(Nc2cc3ncccc3c(N[C@@H]3C[C@H]4CCC[C@@H](C3)N4CC(N)=O)n2)n[nH]1 [Example 1-37] | – | A (A represents a pKi value≥10 (Ki≤0.1 nM)) | C (C represents a pKi value between 7 and 9 (Ki between 100 nM and 1 nM)) | – | – | THP-1 IL4 pIC50 [1, 3]: B (B represents a pEC50 value between 6.7 and 7.5 (EC50 between 200 nM and 32 nM))
Cc1cc(Nc2cc3ncccc3c(N[C@@H]3C[C@H]4CCC[C@@H](C3)N4Cc3ccnc(C#N)c3)n2)n[nH]1 [Example 1-55] | – | – | C (C represents a pKi value between 7 and 9 (Ki between 100 nM and 1 nM)) | – | – | BEAS2B pIC50 [2, 7]: B (B represents a pEC50 value between 6.7 and 7.5 (EC50 between 200 nM and 32 nM))
Cc1cc(Nc2cc3ncccc3c(N[C@@H]3C[C@H]4CC[C@@H](C3)N4C(=O)CF)n2)n[nH]1 [Example 2-2] | – | – | – | 1 to 100 nM | – | Ki (JAK1; [4]): 0.1 to 1 nM; Ki (JAK2): 1 to 100 nM
Cc1cc(Nc2cc3ncccc3c(N[C@@H]3C[C@H]4CCC[C@@H](C3)N4C(=O)c3ccc(C#N)nc3)n2)n[nH]1 [Example 2-28] | B (B represents a pKi value between 9 and 10 (Ki between 1 nM and 0.1 nM)) | – | B (B represents a pKi value between 9 and 10 (Ki between 1 nM and 0.1 nM)) | – | – | BEAS2B pIC50 [2, 7]: C (C represents a pEC50 value<6.7 (EC50>200 nM))
CCOC(=O)N1[C@@H]2CCC[C@H]1C[C@H](Nc1nc(Nc3cc(C)[nH]n3)cc3ncccc13)C2 [Example 3-6] | B (B represents a pKi value between 9 and 10 (Ki between 1 nM and 0.1 nM)) | – | B (B represents a pKi value between 9 and 10 (Ki between 1 nM and 0.1 nM)) | – | – | THP-1 IL4 pIC50 [1, 3]: A (A represents a pEC50 value≥7.5 (EC50≤32 nM))
Cc1cc(Nc2cc3ncccc3c(N[C@@H]3C[C@H]4CC[C@@H](C3)N4S(C)(=O)=O)n2)n[nH]1 [Example 4-1] | – | – | – | 0.1 to 1 nM | < 31.6 nM | Ki (JAK2): 0.1 to 1 nM
CCC1(S(=O)(=O)N2[C@@H]3CC[C@H]2C[C@H](Nc2nc(Nc4cc(C)[nH]n4)cc4ncccc24)C3)CC1 [Example 4-7] | – | – | – | 0.1 to 1 nM | < 31.6 nM | Ki (JAK1): 0.1 to 1 nM; Ki (JAK2): 0.1 to 1 nM
Cc1cc(Nc2cc3ncccc3c(N[C@@H]3C[C@H]4CCC[C@@H](C3)N4S(=O)(=O)CC(C)C)n2)n[nH]1 [Example 4-17] | B (B represents a pKi value between 9 and 10 (Ki between 1 nM and 0.1 nM)) | B (B represents a pKi value between 9 and 10 (Ki between 1 nM and 0.1 nM)) | B (B represents a pKi value between 9 and 10 (Ki between 1 nM and 0.1 nM)) | – | – | THP-1 IL4 pIC50 [1, 3]: A (A represents a pEC50 value≥7.5 (EC50≤32 nM))
Cc1cc(Nc2cc3nc(CO)ccc3c(N[C@@H]3C[C@H]4CC[C@@H](C3)N4S(C)(=O)=O)n2)n[nH]1 [Example 5-12] | – | – | – | 0.1 to 1 nM | 31.6 to 200 nM | –
Cc1cc(Nc2cc3nc(CN4CCOCC4)ccc3c(N[C@@H]3C[C@H]4CCC[C@@H](C3)N4CCC#N)n2)n[nH]1 [Example 5-26] | A (A represents a pKi value≥10 (Ki≤0.1 nM)) | A (A represents a pKi value≥10 (Ki≤0.1 nM)) | B (B represents a pKi value between 9 and 10 (Ki between 1 nM and 0.1 nM)) | – | – | THP-1 IL4 pIC50 [1, 3]: A (A represents a pEC50 value≥7.5 (EC50≤32 nM))
Cc1cc(Nc2cc3nc(CN4CCN(C)CC4)ccc3c(N[C@@H]3C[C@H]4CC[C@@H](C3)N4S(=O)(=O)N3CCC3)n2)n[nH]1 [Example 5-39] | – | – | – | 0.1 to 1 nM | 31.6 to 200 nM | Ki (JAK1): 0.1 to 1 nM; Ki (JAK2): 0.1 to 1 nM
Cc1cc(Nc2cc3nc(CS(C)(=O)=O)ccc3c(N[C@@H]3C[C@H]4CC[C@@H](C3)N4CCF)n2)n[nH]1 [Example 5-41] | B (B represents a pKi value between 9 and 10 (Ki between 1 nM and 0.1 nM)) | B (B represents a pKi value between 9 and 10 (Ki between 1 nM and 0.1 nM)) | B (B represents a pKi value between 9 and 10 (Ki between 1 nM and 0.1 nM)) | – | – | THP-1 IL4 pIC50 [1, 3]: C (C represents a pEC50 value<6.7 (EC50>200 nM))
COc1cnc2cc(Nc3cc(C)[nH]n3)nc(N[C@@H]3C[C@H]4CC[C@@H](C3)N4CCC#N)c2c1 [Example 6-11] | B (B represents a pKi value between 9 and 10 (Ki between 1 nM and 0.1 nM)) | B (B represents a pKi value between 9 and 10 (Ki between 1 nM and 0.1 nM)) | B (B represents a pKi value between 9 and 10 (Ki between 1 nM and 0.1 nM)) | – | – | THP-1 IL4 pIC50 [1, 8]: A (A represents a pEC50 value≥7.5 (EC50≤32 nM))
COc1cnc2cc(Nc3cc(C)[nH]n3)nc(N[C@@H]3C[C@H]4CC[C@@H](C3)N4S(C)(=O)=O)c2c1 [Example 6-18] | – | – | – | 0.1 to 1 nM | < 31.6 nM | IC50 [2, 6]: < 31.6 nM
COc1cnc2cc(Nc3cc(C)[nH]n3)nc(N[C@@H]3C[C@H]4CC[C@@H](C3)N4S(=O)(=O)CC3(C#N)CC3)c2c1 [Example 6-23] | – | – | – | 0.1 to 1 nM | – | Ki (JAK1; [4]): 0.1 to 1 nM; IC50 [2, 6]: 31.6 to 200 nM
COc1cnc2cc(Nc3cc(C)[nH]n3)nc(N[C@@H]3C[C@H]4CCC[C@@H](C3)N4C(=O)CN(C)C)c2c1 [Example 6-30] | B (B represents a pKi value between 9 and 10 (Ki between 1 nM and 0.1 nM)) | B (B represents a pKi value between 9 and 10 (Ki between 1 nM and 0.1 nM)) | B (B represents a pKi value between 9 and 10 (Ki between 1 nM and 0.1 nM)) | – | – | THP-1 IL4 pIC50 [1, 8]: C (C represents a pEC50 value<6.7 (EC50>200 nM))
COC(=O)c1cnc2cc(Nc3cc(C)[nH]n3)nc(N[C@@H]3C[C@H]4CC[C@@H](C3)N4S(C)(=O)=O)c2c1 [Example 6-33] | – | – | – | 0.1 to 1 nM | 31.6 to 200 nM | –
CCS(=O)(=O)N1[C@@H]2CC[C@H]1C[C@H](Nc1nc(Nc3cc(C)[nH]n3)cc3ncc(C(=O)OC)cc13)C2 [Example 6-34] | – | – | – | 0.1 to 1 nM | < 31.6 nM | –
COC(=O)c1cnc2cc(Nc3cc(C)[nH]n3)nc(N[C@@H]3C[C@H]4CC[C@@H](C3)N4C3CCOC3=O)c2c1 (stereo partly shown) [Example 6-35] | – | – | – | 0.1 to 1 nM | 31.6 to 200 nM | Ki (JAK1; [4]): 0.1 to 1 nM
COc1ccnc2cc(Nc3cc(C)[nH]n3)nc(N[C@@H]3C[C@H]4CC[C@@H](C3)N4C3(CC#N)COC3)c12 [Example 7-10] | – | – | – | 0.1 to 1 nM | – | Ki (JAK1; [4]): 0.1 to 1 nM; Ki (JAK2): 0.1 to 1 nM
Cc1cnc2c(F)c(Nc3cc(C)[nH]n3)nc(N[C@@H]3C[C@H]4CC[C@@H](C3)N4S(=O)(=O)c3cccnc3)c2c1 [Example 8-20] | B (B represents a pKi value between 9 and 10 (Ki between 1 nM and 0.1 nM)) | C (C represents a pKi value between 7 and 9 (Ki between 100 nM and 1 nM)) | C (C represents a pKi value between 7 and 9 (Ki between 100 nM and 1 nM)) | – | – | THP-1 IL4 pIC50 [1, 8]: C (C represents a pEC50 value<6.7 (EC50>200 nM))
Cc1cnc2c(F)c(Nc3cc(C)[nH]n3)nc(N[C@@H]3C[C@H]4CCC[C@@H](C3)N4S(C)(=O)=O)c2c1 [Example 8-22] | B (B represents a pKi value between 9 and 10 (Ki between 1 nM and 0.1 nM)) | B (B represents a pKi value between 9 and 10 (Ki between 1 nM and 0.1 nM)) | – | – | – | THP-1 IL4 pIC50 [1, 8]: B (B represents a pEC50 value between 6.7 and 7.5 (EC50 between 200 nM and 32 nM)); BEAS2B pIC50 ([2]; BEAS-2B cells, IL-13 induced STAT6 phosphorylation): B (B represents a pEC50 value between 6.7 and 7.5 (EC50 between 200 nM and 32 nM))
Cc1cc(Nc2cc3ncccc3c(N[C@@H]3C[C@H]4CCC[C@@H](C3)N4S(=O)(=O)c3cncc(F)c3)n2)n[nH]1 [Example 14, N^5-((1R,3s,5S)-9-((5-fluoropyridin-3-yl)sulfonyl)-9-azabicyclo[3.3.1]nonan-3-yl)-N^7-(5-methyl-1H-pyrazol-3-yl)-1,6-naphthyridine-5,7-diamine] | – | – | – | 0.1 to 1 nM | < 31.6 nM | IC50 [2, 6]: < 31.6 nM

Source: patent publication US10072026B2, “Crystalline form of 3-((1R,3s,5S)-3-((7-((5-methyl-1H-pyrazol-3-yl)amino)-1,6-naphthyridin-5-yl)amino)-8-azabicyclo[3.2.1]octan-8-yl)propanenitrile” (priority 2015, dated 2018)
